These are literature values, as cited in patent US8377979B2, “Pharmaceutical formulation containing phenytoin sodium and magnesium stearate” (Taro Pharmaceuticals North America, Inc., priority 2005, dated 2013).

For data set [1] the following is noted: man, oral administration.
For data set [2] the following is noted: gastrointestinal pH range of 1 to 8.

In the case of `O=C1NC(=O)C(c2ccccc2)(c2ccccc2)N1` [phenytoin, 5,5-diphenyl-2,4-imidazolidinedione], in data set [1], the “plasma half-life, average” value was 22 h. For the same compound, the solubility entry in data set [2] was “practically insoluble”.
